Measurements: the SangsterLogP compilation

What was measured:
[1] = method code SF-AS, from DOI: 10.1016/s0006-2952(02)01074-2, PMID: 12392818; conditions: pH 7.4
[2] = method code SF-AS, from DOI: 10.1016/s0090-9556(25)07961-9, PMID: 6130927; conditions: pH 12.0
[3] = method code SF-RC, from PMID: 3382460; conditions: pH 7.0
[4] = method code SF-HPLC, from DOI: 10.1016/s0928-0987(98)00030-x, PMID: 9845810; conditions: pH 7.4
[5] = method code SF-AS, from DOI: 10.1016/s0021-9673(03)00617-4, PMID: 12830921
[6] = not given; remark: listed apart in the source
[7] = not given; remark: listed apart in the source
[8] = method code SF-RC, from DOI: 10.1023/a:1015825912542, PMID: 1808606; conditions: pH 7.2
[9] = method code SF-GLC, from DOI: 10.1016/s0021-9673(00)81319-9
[10] = method code SF, from DOI: 10.1055/s-0038-1624171, PMID: 6548017; conditions: pH 7.4
[11] = method code SF-EPR, from DOI: 10.1007/bf01870789, PMID: 2549250; conditions: pH 12.0
[12] = not given; remark: listed apart in the source
[13] = method code SF-AS, from DOI: 10.1021/jm00154a021, PMID: 3959031; conditions: pH 9.0
[14] = not given; remark: listed apart in the source
[15] = method code SF, from DOI: 10.1016/0378-5173(87)90234-1; conditions: pH 4.0
[16] = method code SF-AS, from DOI: 10.1021/jf60177a051
[17] = not given; remark: listed apart in the source
[18] = method code SF-AS, from PMID: 301777
[19] = method code SF-HPLC, from DOI: 10.1021/js970451q, PMID: 9687340; conditions: pH 6.0
[20] = not given; remark: listed apart in the source
[21] = method code SF-AS, from DOI: 10.1016/0223-5234(96)88239-0; conditions: pH 2.0
[22] = method code SF, from DOI: 10.1093/jnci/60.2.345, PMID: 621753
[23] = method code SF-AS, from DOI: 10.1002/jps.2600620542, PMID: 4705706
[24] = method code SF-RC, from DOI: 10.1111/j.1399-3054.1990.tb08712.x
[25] = method code SF-HPLC, from DOI: 10.1002/jps.2600841008, PMID: 8801331; conditions: pH 3.1
[26] = method code SF-TN, from DOI: 10.1002/ardp.19763091008, PMID: 1008678
[27] = not given; remark: listed apart in the source
[28] = not given; remark: listed apart in the source
[29] = method code SF-AS, from PMID: 1705424; conditions: pH 7.4
[30] = not given; remark: listed apart in the source
[31] = not given; remark: listed apart in the source
[32] = method code SF, from DOI: 10.1177/1087057110396372, PMID: 21343602; conditions: pH 7.4
[33] = not given; remark: listed apart in the source
[34] = method code SF, from DOI: 10.1016/s0968-0896(00)00025-0, PMID: 10882003
[35] = method code SF-GLC, from DOI: 10.1016/0045-6535(95)00311-u
[36] = method code SF-RC,AS, from DOI: 10.1021/es60170a013; conditions: pH 8.7
[37] = method code SF-AS, from DOI: 10.1007/s001280000002, PMID: 10757653
[38] = not given; remark: listed apart in the source
[39] = method code SF-RC, from DOI: 10.1248/cpb.39.104, PMID: 2049793; conditions: pH 7.4
[40] = method code SF-AS, from DOI: 10.1007/s00044-012-0399-x
[41] = method code SF-AS, from DOI: 10.1021/jm00162a004, PMID: 3023612
[42] = method code G-GLC, from DOI: 10.1021/es00169a004
[43] = not given; remark: listed apart in the source
[44] = method code SF-GLC,AS, from DOI: 10.2134/jeq1981.00472425001000030028x
[45] = method code SF-HPLC, from DOI: 10.1016/0006-2952(84)90322-8, PMID: 6704182
[46] = method code SF-GLC, from DOI: 10.1021/es00171a006
[47] = method code SF, from Ganellin, C. R., & Durant, G. J. (1981). Histamine H2-receptor agonists and antagonists. Burgers Medicinal Chemistry, 3, 487-552.; conditions: pH 9.2
[48] = method code SF-HPLC, from DOI: 10.1002/jps.10112, PMID: 12115830; conditions: pH 7.4

SMILES: CC(=O)c1cc2ccccc2oc1=O
- logD [1]: 1.5

SMILES: CC(C)[C@@H](N)Cc1ccccc1
- logD [2]: 2.59

SMILES: CNC(=O)OC1OC(=O)C2C3C=CC(C3)C12 (centres undefined)
- logD [3]: 0.63

SMILES: Cc1ccc2c(c1)C(=O)N(CCO[N+](=O)[O-])CO2
- logD [4]: 2.41

SMILES: CC(=O)c1ccc(C(C)C)cc1
- logP: 2.98

SMILES: CCc1c(C)nc2ccccn2c1=O
- logP [5]: 1.58

SMILES: CCCCCCCCn1sc(Cl)c(Cl)c1=O
- logP [6]: 4.9

SMILES: C1COC(NC(C2CC2)C2CC2)=N1
- logP [7]: 1.63

SMILES: CC(=O)NC(Cc1ccccc1)C(N)=O (centres undefined)
- logD [8]: 0.05

SMILES: Clc1cccc(-c2ccccc2)c1
- logP [9]: 4.71

SMILES: O=[N+]([O-])c1nccn1CCOc1ccc(I)cc1
- logD [10]: 2.84

SMILES: CN(C)C1CC(C)(C)N(O)C(C)(C)C1
- logD [11]: 1.13

SMILES: O=S(c1cc(Cl)cc(Cl)c1O)c1cc(Cl)cc(Cl)c1O
- logP [12]: 4.13

SMILES: CN1CCN(CCn2cncc2[N+](=O)[O-])CC1
- logD [13]: -0.2

SMILES: CCC(C)C1(CC)C(=O)NC(=O)NC1=O (centres undefined)
- logP [14]: 1.58

SMILES: O=C(c1ccccc1)n1c(=O)[nH]cc(F)c1=O
- logD [15]: 0.8

SMILES: Cc1nc(C)c(C(=O)Nc2ccccc2)s1
- logP [16]: 1.08

SMILES: O=C(O)c1cccc2ccccc12
- logP [17]: 2.78

SMILES: CCc1nc(N)nc(N)c1-c1ccc(Cl)c(Cl)c1
- logP [18]: 3.19

SMILES: COc1cc(C)nc(-n2nc(C)cc2OC)n1
- logD [19]: 1.35

SMILES: c1cc2c3c(cccc3c1)CC2
- logP [20]: 3.98

SMILES: Cn1c(C(=O)O)cnc1C(=O)c1ccc([N+](=O)[O-])cc1
- logD [21]: 2.14

SMILES: O=NN(CCCl)C(=O)NCCCCNC(=O)N(CCCl)N=O
- logP [22]: 0.9

SMILES: O=C(c1ccncc1)c1ccc(Cl)cc1
- logP [23]: 2.61

SMILES: c1ccc(CNc2ncnc3[nH]cnc23)cc1
- logP [24]: 1.57

SMILES: O=C(O)CCCCc1ccccc1
- logD [25]: 2.73

SMILES: CCNC(=O)C1C2CC3C(OC(=O)C31)C2O (centres undefined)
- logP [26]: -0.35

SMILES: Clc1cc(Cl)c(Oc2ccccc2)cc1Cl
- logP [27]: 5.44

SMILES: CCCOCCc1ccc(O)c(O)c1
- logP [28]: 1.64

SMILES: CC(C)Cn1cnc2c1c(=O)n(C)c(=O)n2C
- logD [29]: 1.28

SMILES: OC1(c2ccc(Cl)cc2)CCNCC1
- logP [30]: 1.98

SMILES: Nc1ccc(S(=O)(=O)Nc2cccc(Cl)c2Cl)cc1
- logP [31]: 2.62

SMILES: c1ccc(Nc2ccccc2)cc1
- logD [32]: 3.57

SMILES: CC1(C)CC(C(=O)O)CC(C)(C)N1O
- logP [33]: 1.25

SMILES: Cc1[nH]c(=O)c(C#N)cc1-c1ccncc1
- logP [34]: 0.42

SMILES: CCCCCCCCCC(Cl)(Cl)Cl
- logP [35]: 5.85

SMILES: Nc1ccc(-c2ccc(N)c(Cl)c2)cc1Cl
- logD [36]: 3.51

SMILES: CCOC(=O)c1cccc(C(=O)OCC)n1
- logP [37]: 3

SMILES: C=CC(=O)OCC(CC)CCCC (centres undefined)
- logP [38]: 4.29

SMILES: CNC(=S)NN=C(C)C(C)(C)C(C)=NNC(=S)NC
- logD [39]: 2.51

SMILES: COC(=O)CN1Cc2ccccc2C1
- logP [40]: -0.03

SMILES: CCCC1(CCC)CCC=[N+]1[O-]
- logP [41]: 0.69

SMILES: Clc1cc(Cl)c(-c2c(Cl)c(Cl)c(Cl)c(Cl)c2Cl)c(Cl)c1Cl
- logP [42]: 7.52

SMILES: CC(C)NCC(O)c1ccc(Cl)c(Cl)c1 (centres undefined)
- logP [43]: 3.32

SMILES: CCN(CC)c1nc(Cl)nc(NC(C)C)n1
- logP [44]: 3.94

SMILES: CC(=O)Nc1ccn([C@@H]2O[C@H](CO)[C@@H](O)[C@@H]2O)c(=O)n1
- logP [45]: -1.35

SMILES: Clc1cc(Cl)c2c(c1Cl)Oc1ccccc1O2
- logP [46]: 5.57

SMILES: CNC(=S)NCCCCc1nc[nH]c1C
- logD [47]: 0.85

SMILES: CC(SSc1ncc[nH]1)c1ccccc1 (centres undefined)
- logD [48]: 3.39
